12 molecules from US20250179061A1 (SIRONAX LTD., priority 2022, published 2025) can be followed below.

The structures appear in SMILES notation. Read-outs that look alike come from different tables or passages of the source.

The assay has as its system HT-29 cells. In words: HT-29 necroptosis cell viability assay (TNF-α/SMAC mimetic/zVAD-FMK, CellTiter-Glo). Format: cell-based. The following applies: Homo sapiens, read-out: Activity. The essentials: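 Necroptosis was triggered by TNF-α (10 ng/ml), SMAC mimetic (6 μM) and zVAD-FMK (10 μM) in serum-free medium during 20 h compound exposure (10 concentrations, threefold steps) of HT-29 cells. IC50 from duplicate dose-responses uses CellTiter-Glo ATP luminescence as viability read-out.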
A general note: ATP-based viability assays read luminescence as a measure of living cells.

Where [1] appears, read: HT-29, HT-29 necroptosis cell viability assay, class symbols for IC50.
The mark [2] stands for this setting: HT-29, HT-29 necroptosis cell viability, IC50 class symbols.
Setting [3] is: HT-29 cells stimulated with TNF-α (10 ng/ml), SMAC mimetic (6 μM) and zVAD-FMK (10 μM), 20 hours, CellTiter-Glo ATP luminescence, geometric mean IC50 from 10 points.

In the case of `O=c1n(Cc2c(F)cccc2F)cnn1-c1ccc(Oc2scnc2CO)c(F)c1` [Example 145, 4-(2,6-difluorobenzyl)-2-(3-fluoro-4-((4-(hydroxymethyl)thiazol-5-yl)oxy)phenyl)-2,4-dihydro-3H-1,2,4-triazol-3-one], the IC50 under setting [1] was less than 100 nM. For `Cc1cnc(N2CCC(C)(C#N)C2)cc1Oc1ccc(-n2ncn(Cc3c(F)cccc3F)c2=O)cc1F` (stereo not drawn) [Example 228, 1-(4-(4-(4-(2,6-difluorobenzyl)-5-oxo-4,5-dihydro-1H-1,2,4-triazol-1-yl)-2-fluorophenoxy)-5-methylpyridin-2-yl)-3-methylpyrrolidine-3-carbonitrile], the IC50 under setting [2] was less than 100 nM.

For the molecule `O=c1n(Cc2c(F)cccc2F)cnn1-c1ccc(Oc2cc(N3CCOCC3)ncc2F)c(F)c1` [Example 283, 4-(2,6-difluorobenzyl)-2-(3-fluoro-4-((5-fluoro-2-morpholinopyridin-4-yl)oxy)phenyl)-2,4-dihydro-3H-1,2,4-triazol-3-one], the IC50 under setting [2] was less than 100 nM. As for `Cc1nc(C(N)=O)c(Oc2ccc(-n3ncn(Cc4c(F)cccc4F)c3=O)cc2F)s1` [Example 100, 5-(4-(4-(2,6-difluorobenzyl)-5-oxo-4,5-dihydro-1H-1,2,4-triazol-1-yl)-2-fluorophenoxy)-2-methylthiazole-4-carboxamide], under setting [3], the IC50 fell in the range of 100 to 1000 nM. As for `O=c1n(-c2ccc(Oc3ccncc3)cc2)nc(Cl)n1Cc1ccccc1` [Example 403, 4-benzyl-5-chloro-2-(4-(pyridin-4-yloxy)phenyl)-2,4-dihydro-3H-1,2,4-triazol-3-one], under setting [2], the IC50 is 100 to 1000 nM.

Consider `CNC1(C)CN(c2cc(Oc3ccc(-n4ncn(Cc5c(F)cccc5F)c4=O)cc3F)c(Cl)cn2)C1` [Example 414, 2-(4-((5-chloro-2-(3-methyl-3-(methylamino)azetidin-1-yl)pyridin-4-yl)oxy)-3-fluorophenyl)-4-(2,6-difluorobenzyl)-2,4-dihydro-3H-1,2,4-triazol-3-one], for which the IC50 under setting [2] is more than 10000 nM.

Consider `Cc1nc(C(N)=O)cn1Cc1ccc(-n2nc3n(c2=O)C(c2ccccc2)CC3)cc1F` (stereo not drawn) [Example 102, 1-(2-fluoro-4-(3-oxo-5-phenyl-6,7-dihydro-3H-pyrrolo[2,1-c][1,2,4]triazol-2(5H)-yl)benzyl)-2-methyl-1H-imidazole-4-carboxamide], for which, under setting [3], the IC50 was less than 100 nM. For the molecule `CC1(C#N)CN(c2nccc(Oc3ccc(-n4ncn(Cc5c(F)cccc5F)c4=O)cc3F)c2Cl)C1` [Example 238, 1-(3-chloro-4-(4-(4-(2,6-difluorobenzyl)-5-oxo-4,5-dihydro-1H-1,2,4-triazol-1-yl)-2-fluorophenoxy)pyridin-2-yl)-3-methylazetidine-3-carbonitrile], the IC50 under setting [2] was less than 100 nM. For the molecule `Cc1nc(C#N)sc1Oc1ccc(-n2ncn(Cc3c(F)cccc3F)c2=O)cc1F` [Example 569, 5-(4-(4-(2,6-difluorobenzyl)-5-oxo-4,5-dihydro-1H-1,2,4-triazol-1-yl)-2-fluorophenoxy)-4-methylthiazole-2-carbonitrile], the IC50 under setting [1] is less than 100 nM. With `NC1(CO)CN(c2cc(Oc3ccc(-n4ncn(Cc5c(F)cccc5F)c4=O)cc3F)c(F)cn2)C1` [Example 378, 2-(4-((2-(3-amino-3-(hydroxymethyl)azetidin-1-yl)-5-fluoropyridin-4-yl)oxy)-3-fluorophenyl)-4-(2,6-difluorobenzyl)-2,4-dihydro-3H-1,2,4-triazol-3-one], under setting [2], the IC50 was 100 to 1000 nM. For `O=c1n(Cc2c(F)cccc2F)cnn1-c1ccc(Oc2ccnc(NC3COC3)c2)cc1` [Example 343, 4-(2,6-difluorobenzyl)-2-(4-((2-(oxetan-3-ylamino)pyridin-4-yl)oxy)phenyl)-2,4-dihydro-3H-1,2,4-triazol-3-one], the IC50 under setting [2] fell in the range of 1000 to 10000 nM. On to `Cc1cc(-n2ncn(Cc3c(F)cccc3F)c2=O)ccc1Oc1ccnc(N2CC3(CCOCC3)C2)c1` [Example 274, 2-(4-((2-(7-oxa-2-azaspiro[3.5]nonan-2-yl)pyridin-4-yl)oxy)-3-methylphenyl)-4-(2,6-difluorobenzyl)-2,4-dihydro-3H-1,2,4-triazol-3-one], for which, under setting [2], the IC50 was 1000 to 10000 nM.
